Experimental data from article PMC11163988, “Cloning, expression, and purification of an α-carbonic anhydrase from Toxoplasma gondii to unveil its kinetic parameters and anion inhibition profile” (Journal of Enzyme Inhibition and Medicinal Chemistry, 2024).

biological target: hCA II (Homo sapiens, UniProt P00918); experiment: stopped-flow CO2 hydrase assay, hCA II; assay type: biochemical; details: 20 mM Hepes pH 7.5, 20 mM NaClO4, mean from 3 assays

Row | Compound | Ki
1 | F[P-](F)(F)(F)(F)F [PF6^–, haxafluorophosphate] | > 100 mM

biological target: Tg_CA (Toxoplasma gondii α-CA) (Toxoplasma gondii, UniProt S8F479); experiment: biochemical; assay type: biochemical; details: not given
Sequence (S8F479 486-829 limits assumed): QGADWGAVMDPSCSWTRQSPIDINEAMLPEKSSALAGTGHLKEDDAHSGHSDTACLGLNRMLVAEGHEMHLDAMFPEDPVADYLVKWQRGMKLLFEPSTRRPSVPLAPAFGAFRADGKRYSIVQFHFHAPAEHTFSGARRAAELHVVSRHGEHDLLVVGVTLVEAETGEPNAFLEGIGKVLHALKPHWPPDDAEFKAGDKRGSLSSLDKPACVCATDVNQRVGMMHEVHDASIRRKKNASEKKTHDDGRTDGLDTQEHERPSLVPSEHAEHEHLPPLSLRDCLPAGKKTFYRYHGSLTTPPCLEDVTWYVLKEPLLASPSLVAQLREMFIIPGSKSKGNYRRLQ

Row | Compound | Ki
2 | OB(O)c1ccccc1 [Ph-B(OH)2, phenylboronic acid] | 5.1 mM

same assay, conditions: pH 7.5; read-out: KI (mM) Tg_CAα

Row | Compound | Ki
3 | OB1OB2OB(O)OB(O1)O2 [B4O7^2–, tetraborate] | 63.9 mM
4 | F[B-](F)(F)F [BF4^–, tetrafluoroborate] | 25 mM
5 | Br [Br^–] | > 100 mM
6 | O=S(=O)(O)C(F)(F)F [CF3SO3^–, triflate] | 7.1 mM
7 | N#CO [CNO^–, cyanate] | 49.6 mM
8 | O=C(O)O [CO3^2–, carbonate] | 98.2 mM
9 | S=C(S)S [CS3^2–, trithiocarbonate] | 4.8 mM
10 | [O-][Cl+3]([O-])([O-])O [ClO4^–, perchlorate] | 77.8 mM
11 | Cl [Cl^–, chloride] | > 100 mM
12 | CCN(CC)C(=S)S [Et2NCS2^–, N,N-diethyldithiocarbamate] | 3.1 mM
13 | F [F^–] | > 100 mM
14 | NS(N)(=O)=O [H2NSO2NH2, sulfamide] | 0.92 mM
15 | NS(=O)(=O)O [H2NSO3H, sulphamic acid] | 0.68 mM
16 | O=C(O)O [HCO3^–, bicarbonate] | > 100 mM
17 | O=S(O)O [HSO3^–, bisulphite] | 9.1 mM
18 | S [HS^–, hydrogensulfide] | 45.7 mM

Row | Compound | Ki
19 | I [I^–] | > 100 mM
20 | [N-]=[N+]=[N-] [N3^–, azide] | > 100 mM
21 | O=S(=O)(O)NS(=O)(=O)O [NH(SO3)2^2–, iminodisulfonate] | 8.5 mM
22 | O=NO [NO2^–, nitrite] | 6.4 mM
23 | O=[N+]([O-])O [NO3^–, nitrate] | 8.5 mM
24 | O=P(O)(O)OP(=O)(O)O [P2O7^4–, diphosphate] | 35.7 mM
25 | F[P-](F)(F)(F)(F)F [PF6^–, haxafluorophosphate] | 1.9 mM
26 | [O]=[Re](=[O])(=[O])[OH] [ReO4^–, perrhenate] | 3.4 mM
27 | [O]=[Ru](=[O])(=[O])=[O] [RuO4^–, perruthenate] | 2.3 mM
28 | O=S(=O)(O)OOS(=O)(=O)O [S2O8^2–, peroxydisulfate] | 26.6 mM
29 | N#CS [SCN^–, thiocyanate] | 31.9 mM
30 | O=S(=O)(O)O [SO4^2–, sulphate] | 6 mM
31 | N#C[SeH] [SeCN^–, selenocyanate] | > 100 mM
32 | O=[Te](=O)(O)O [TeO4^2–, tellurate] | 2.5 mM
33 | [O]=[V]([OH])([OH])[O][V](=[O])([OH])[OH] [V2O7^4–, divanadate] | 39.8 mM
